In PMC8284453 (Antimicrobial Agents and Chemotherapy, 2021):
In brackets after ≈: the same amount, converted by molar mass. Several values for one entry are separate records, joined by “and”; a condition that tells them apart may be missing. Equal entries are not always repeated. Where two headings read alike, the source gives them in different places.

Legend:
[1] = test system: Enterobacterales expressing class C cephalosporinases
E. coli ESBL4 (CTX-M-15) = experiment: Broth microdilution MIC; type: cell-based; settings: Escherichia coli
[2] = test system: Enterobacterales expressing class C cephalosporinases; experiment: organism not typed
[3] = test system: isogenic strains of E. coli expressing Ambler class A, B, C, and D enzymes; experiment: microbe, parasite or virus in culture; type: cell-based, Escherichia coli
[4] = test system: E. cloacae ECL01 (TEM-72, ACT-1, P99AmpC); experiment: Broth microdilution MIC; type: cell-based; settings: Enterobacter cloacae
[5] = test system: Enterobacterales expressing class A carbapenemases (KPC); experiment: organism not typed; type: cell-based, K. pneumoniae, E. coli, E. cloacae, Klebsiella oxytoca
[6] = test system: K. pneumoniae ATCC BAA-1705 (KPC-2); experiment: Broth microdilution MIC; type: cell-based; settings: Klebsiella pneumoniae, ATCCBAA1705
[7] = test system: Enterobacterales expressing class A ESBLs; experiment: organism not typed; type: cell-based, E. coli, K. pneumoniae

Work on `Nc1nc(/C(=C/CC(=O)O)C(=O)N[C@@H]2C(=O)N3C(C(=O)O)=CCS[C@H]23)cs1` [CTB, ceftibuten] yielded an MIC ([1]; S. marcescens 156212 (AmpC, SHV-12, TEM-1)) of 8 µg/mL (≈ 19.5 µM), an MIC ([1]; S. marcescens 192478 (AmpC, SHV-12, TEM-1)) of 8 µg/mL (≈ 19.5 µM) and an MIC ([1]; S. marcescens 218068 (AmpC, SHV-7, TEM-1)) of 32 µg/mL (≈ 78 µM). The MIC (E. coli ESBL4 (CTX-M-15)) was 32 µg/mL (≈ 78 µM), the MIC50 [2] was 16 µg/mL (≈ 39 µM) and the MIC90 [2] was at least 64 µg/mL. For the same molecule, the “Fold increase in MIC compared to vector control” value (shortened to “Fold increase in MIC”) [3] was 16 and 32, the “Fold increase in MIC” value ([3]; E. coli expressing ACT-17 (class C), inhibitor fixed at 4 μg/ml) was 1,024 and the “Fold increase in MIC” value ([3]; E. coli expressing CMY-2 (class C), inhibitor fixed at 4 μg/ml) was 1,024. For the same molecule, the “Fold increase in MIC” value ([3]; E. coli expressing CMY-42 (class C), inhibitor fixed at 4 μg/ml) was ≥1,024, the “Fold increase in MIC” value ([3]; E. coli expressing CTX-M-15 (class A), inhibitor fixed at 4 μg/ml) was 64 and the “Fold increase in MIC” value ([3]; E. coli expressing GES-5 (class A), inhibitor fixed at 4 μg/ml) was 8. The “Fold increase in MIC” value ([3]; E. coli expressing NDM-1 (class B), inhibitor fixed at 4 μg/ml) was ≥1,024, the “Fold increase in MIC” value ([3]; E. coli expressing OXA-23 (class D), inhibitor fixed at 4 μg/ml) was 2 and the “Fold increase in MIC” value ([3]; E. coli expressing OXA-48 (class D), inhibitor fixed at 4 μg/ml) was 4. For the same molecule, the “Fold increase in MIC” value ([3]; E. coli expressing OXA-163 (class D), inhibitor fixed at 4 μg/ml) was 32, the “Fold increase in MIC” value ([3]; E. coli expressing OXA-181 (class D), inhibitor fixed at 4 μg/ml) was 2 and the “Fold increase in MIC” value ([3]; E. coli expressing P99/AmpC (class C), inhibitor fixed at 4 μg/ml) was ≥1,024. For the same molecule, the “Fold increase in MIC” value ([3]; E. coli expressing PER-1 (class A), inhibitor fixed at 4 μg/ml) was 1,024, the “Fold increase in MIC” value ([3]; E. coli expressing SHV-5 (class A), inhibitor fixed at 4 μg/ml) was 128 and the “Fold increase in MIC” value ([3]; E. coli expressing SHV-12 (class A), inhibitor fixed at 4 μg/ml) was 256. The “Fold increase in MIC” value ([3]; E. coli expressing TEM-10 (class A), inhibitor fixed at 4 μg/ml, modal MIC, 4 replicates) was 4, the “Fold increase in MIC” value ([3]; E. coli expressing VEB-9 (class A), inhibitor fixed at 4 μg/ml) was ≥1,024 and the MIC ([3]; Escherichia coli, read-out: Vector control MIC) was 1 µg/mL (≈ 2.44 µM). For the same molecule, the MIC [4] was 64 µg/mL (≈ 156 µM), the MIC50 [5] was 16 µg/mL (≈ 39 µM) and the MIC90 [5] was at least 64 µg/mL. The MIC90 ([5]; 25 isolates, BLI fixed at 4 μg/ml, AMC 2:1) was at least 64 µg/mL, the MIC ([5]; E. cloacae 847426 (KPC)) was at least 64 µg/mL and the MIC ([5]; E. cloacae 847429 (KPC)) was 16 µg/mL (≈ 39 µM). The MIC ([5]; E. cloacae OIMGH49 (p99 AmpC, ACT-2, KPC-2, TEM-1)) was at least 64 µg/mL, the MIC ([5]; E. coli 786978 (KPC)) was 32 µg/mL (≈ 78 µM) and the MIC ([5]; K. oxytoca 847537 (KPC)) was at least 64 µg/mL. For the same molecule, the MIC ([5]; K. oxytoca 847539 (KPC)) was 0.5 µg/mL (≈ 1.22 µM), the MIC ([5]; K. pneumoniae 155140 (AmpC, KPC-2, SHV-12, TEM-1)) was at least 64 µg/mL and the MIC ([5]; K. pneumoniae 845661 (KPC)) was 32 µg/mL (≈ 78 µM). For the same molecule, the MIC ([5]; K. pneumoniae 845662 (KPC)) was 16 µg/mL (≈ 39 µM), the MIC ([5]; K. pneumoniae 845665 (KPC)) was 32 µg/mL (≈ 78 µM) and the MIC ([5]; K. pneumoniae 845667 (KPC)) was 16 µg/mL (≈ 39 µM). It also gave an MIC ([5]; K. pneumoniae 845670 (KPC)) of 0.5 µg/mL (≈ 1.22 µM), an MIC ([5]; K. pneumoniae 845904 (KPC)) of 1 µg/mL (≈ 2.44 µM) and an MIC ([5]; K. pneumoniae 847204 (KPC)) of 16 µg/mL (≈ 39 µM). For the same molecule, the MIC ([5]; K. pneumoniae 847375 (KPC)) was 8 µg/mL (≈ 19.5 µM), the MIC ([5]; K. pneumoniae 847378 (KPC)) was 8 µg/mL (≈ 19.5 µM) and the MIC ([5]; K. pneumoniae 847379 (KPC)) was 8 µg/mL (≈ 19.5 µM). For the same molecule, the MIC ([5]; K. pneumoniae 847383 (KPC)) was 8 µg/mL (≈ 19.5 µM), the MIC ([5]; K. pneumoniae 847384 (KPC)) was 8 µg/mL (≈ 19.5 µM) and the MIC ([5]; K. pneumoniae 847387 (KPC)) was 16 µg/mL (≈ 39 µM). It also gave an MIC ([5]; K. pneumoniae 847747 (KPC)) of 4 µg/mL (≈ 9.75 µM), an MIC ([5]; K. pneumoniae 848832 (KPC)) of 16 µg/mL (≈ 39 µM) and an MIC ([5]; K. pneumoniae 848844 (KPC)) of 16 µg/mL (≈ 39 µM). The MIC ([5]; K. pneumoniae 897067 (KPC)) was 2 µg/mL (≈ 4.87 µM), the MIC ([5]; K. pneumoniae UMM (KPC-2, SHV-5, TEM-1)) was 1 µg/mL (≈ 2.44 µM) and the MIC [6] was 16 µg/mL (≈ 39 µM). For the same molecule, the MIC50 [7] was 8 µg/mL (≈ 19.5 µM) and the MIC90 [7] was at least 64 µg/mL.
